# Experiments:
# [1] = target: T1, OCT2 (SLC22A2) (Homo sapiens, UniProt O15244); experiment: Cellular uptake into OCT2-overexpressing HEK293 cells vs EV control cells (HPLC-MS/MS); details: label = favoured enantiomer
# T1 sequence (O15244 1-555): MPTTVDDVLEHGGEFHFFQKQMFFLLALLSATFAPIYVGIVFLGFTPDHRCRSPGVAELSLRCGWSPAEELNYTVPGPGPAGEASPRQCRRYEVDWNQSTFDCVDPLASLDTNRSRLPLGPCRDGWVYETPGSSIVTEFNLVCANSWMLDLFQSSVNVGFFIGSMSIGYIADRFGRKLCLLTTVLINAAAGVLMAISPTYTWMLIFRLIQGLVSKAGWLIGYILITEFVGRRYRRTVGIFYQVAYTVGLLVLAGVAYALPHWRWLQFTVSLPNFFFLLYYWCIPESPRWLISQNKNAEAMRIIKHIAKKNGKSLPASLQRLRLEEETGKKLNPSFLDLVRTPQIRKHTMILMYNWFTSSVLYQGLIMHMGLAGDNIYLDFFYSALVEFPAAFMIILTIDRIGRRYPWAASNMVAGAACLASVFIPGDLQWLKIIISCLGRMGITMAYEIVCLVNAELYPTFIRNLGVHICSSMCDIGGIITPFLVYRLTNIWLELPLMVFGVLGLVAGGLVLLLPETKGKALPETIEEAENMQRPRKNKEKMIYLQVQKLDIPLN
# [2] = target: T2, OCT1 (SLC22A1) (Homo sapiens, UniProt O15245); experiment: Cellular uptake into OCT1-overexpressing HEK293 cells vs EV control cells (HPLC-MS/MS); details: label = favoured enantiomer
# T2 sequence (O15245 1-554): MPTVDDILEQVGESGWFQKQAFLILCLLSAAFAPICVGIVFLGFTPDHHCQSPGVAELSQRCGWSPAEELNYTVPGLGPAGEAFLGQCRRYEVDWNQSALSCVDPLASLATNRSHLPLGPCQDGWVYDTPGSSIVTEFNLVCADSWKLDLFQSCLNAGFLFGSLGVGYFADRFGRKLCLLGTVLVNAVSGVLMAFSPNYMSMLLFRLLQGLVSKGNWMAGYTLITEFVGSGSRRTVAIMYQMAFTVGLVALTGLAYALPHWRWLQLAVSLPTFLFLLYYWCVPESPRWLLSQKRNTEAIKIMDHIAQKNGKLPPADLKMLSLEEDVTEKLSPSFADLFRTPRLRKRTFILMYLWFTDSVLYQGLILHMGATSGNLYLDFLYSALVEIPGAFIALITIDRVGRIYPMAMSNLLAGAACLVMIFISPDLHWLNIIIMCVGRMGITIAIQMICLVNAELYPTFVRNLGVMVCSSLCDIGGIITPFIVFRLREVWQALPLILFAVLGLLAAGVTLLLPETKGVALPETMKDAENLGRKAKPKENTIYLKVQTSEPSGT
# [3] = target: T3, OCT3 (SLC22A3) (Homo sapiens, UniProt O75751); experiment: Cellular uptake into OCT3-overexpressing HEK293 cells vs EV control cells (HPLC-MS/MS); details: label = favoured enantiomer
# T3 sequence (O75751 1-556): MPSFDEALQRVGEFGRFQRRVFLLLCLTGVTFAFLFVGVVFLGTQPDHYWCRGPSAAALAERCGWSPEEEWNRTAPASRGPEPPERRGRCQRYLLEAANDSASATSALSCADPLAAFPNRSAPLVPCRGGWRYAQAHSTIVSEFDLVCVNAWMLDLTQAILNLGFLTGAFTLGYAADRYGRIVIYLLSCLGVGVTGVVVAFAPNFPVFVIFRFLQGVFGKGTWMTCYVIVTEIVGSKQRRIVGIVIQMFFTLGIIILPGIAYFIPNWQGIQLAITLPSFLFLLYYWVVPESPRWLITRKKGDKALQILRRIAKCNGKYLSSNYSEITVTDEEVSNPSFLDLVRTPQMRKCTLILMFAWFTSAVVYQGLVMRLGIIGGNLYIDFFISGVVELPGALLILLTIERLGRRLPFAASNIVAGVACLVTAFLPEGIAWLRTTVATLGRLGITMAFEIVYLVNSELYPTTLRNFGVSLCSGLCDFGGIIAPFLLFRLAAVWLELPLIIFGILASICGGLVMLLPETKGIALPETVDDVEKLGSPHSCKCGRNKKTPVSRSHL
# [4] = target: MATE2-K (SLC47A2) (Homo sapiens, UniProt Q86VL8)
# Sequence of MATE2-K (SLC47A2) (Q86VL8 1-566 isoform Q86VL8-3): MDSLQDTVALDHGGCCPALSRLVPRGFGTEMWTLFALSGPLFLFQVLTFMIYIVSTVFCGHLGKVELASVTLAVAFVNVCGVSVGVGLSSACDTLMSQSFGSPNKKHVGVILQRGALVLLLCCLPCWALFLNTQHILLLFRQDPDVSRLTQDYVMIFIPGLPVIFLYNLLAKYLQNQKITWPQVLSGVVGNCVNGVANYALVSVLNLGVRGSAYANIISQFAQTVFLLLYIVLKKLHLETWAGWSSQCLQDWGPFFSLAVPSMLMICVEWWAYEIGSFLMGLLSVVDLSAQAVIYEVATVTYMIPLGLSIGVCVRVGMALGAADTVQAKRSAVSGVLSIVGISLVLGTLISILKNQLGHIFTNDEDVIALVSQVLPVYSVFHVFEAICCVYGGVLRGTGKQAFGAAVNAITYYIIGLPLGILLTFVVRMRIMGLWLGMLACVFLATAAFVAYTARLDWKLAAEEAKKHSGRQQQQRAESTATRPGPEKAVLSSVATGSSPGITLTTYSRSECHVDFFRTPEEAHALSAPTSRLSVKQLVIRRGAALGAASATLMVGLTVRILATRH
smiles,measurement,setting,value
"C[C@H](N)CN [(S)-(−)-1,2-diaminopropane]",stereoselectivity OCT2 (uptake ratio of the more strongly transported enantiomer divided by that of the other),[1],1.2-fold for (S)
same,stereoselectivity OCT1 (uptake ratio of the more strongly transported enantiomer divided by that of the other),[2],1.3-fold for (S)
same,stereoselectivity OCT3 (uptake ratio of the more strongly transported enantiomer divided by that of the other),[3],1.4-fold for (S)
same,stereoselectivity MATE2K (uptake ratio of the more strongly transported enantiomer divided by that of the other),[4],1.1-fold for (S)
